Literature values in US20250186525A1, “DECAFFEINATED YERBA MATE EXTRACT, ANTI-OBESITY COMPOSITION, DECAFFEINATION METHOD AND METHOD FOR THE PRODUCTION OF A YERBA MATE EXTRACT” (priority 2022, published 2025).

Experiments:
mice = conditions: isolated from a hot water extract of yerba mate
fat accumulation = conditions: cell and animal tests

SMILES | food intake (mice) | inhibitory effect on fat accumulation (fat accumulation) | gene expression of fatty acid synthase (fatty acid synthase)
O=C(/C=C/c1ccc(O)c(O)c1)O[C@@H]1CC(O)(C(=O)O)C[C@@H](OC(=O)/C=C/c2ccc(O)c(O)c2)C1O (stereo partly shown) [3,5-dicaffeoylquinic acid] | significantly reduces | – | –
Cn1c(=O)c2c(ncn2C)n(C)c1=O [caffeine] | – | showed an inhibitory effect | reduced
O=C(/C=C/c1ccc(O)c(O)c1)O[C@@H]1C[C@](O)(C(=O)O)C[C@@H](O)[C@H]1O [chlorogenic acid] | significantly reduces | – | –
